# Measured values as given in patent US20220370463A1, “STABILIZED C-FMS INTRACELLULAR FRAGMENTS (FICD) PROMOTE OSTEOCLAST DIFFERENTIATION AND ARTHRITIC BONE EROSION” (New York Society for the Relief of the Ruptured and …, priority 2019, published 2022).
# Entries after “also recorded” stand apart in the source; their conditions may differ.
# B1: IL-34: ligand for c-FMS (protein, UniProt Q6ZMJ4 21-242, looked up)
# Interleukin-34: NEPLEMWPLTQNEECTVTGFLRDKLQYRSRLQYMKHYFPINYKISVPYEGVFRIANVTRLQRAQVSERELRYLWVLVSLSATESVQDVLLEGHPSWKYLQEVETLLLNVQQGLTDVEVSPKVESVLSLLNAPGPNLKLVRPKALLDNCFRVMELLYCSCCKQSSVLNWQDCEVPSPQSCSPEPSLQYAATQLYPPPPWSPSSPPHSTGSVRPVRAQGEGLLP
# B2: M-CSF: ligand for c-FMS (protein, UniProt P09603 33-554, looked up)
# Macrophage colony-stimulating …: EEVSEYCSHMIGSGHLQSLQRLIDSQMETSCQITFEFVDQEQLKDPVCYLKKAFLLVQDIMEDTMRFRDNTPNAIAIVQLQELSLRLKSCFTKDYEEHDKACVRTFYETPLQLLEKVKNVFNETKNLLDKDWNIFSKNCNNSFAECSSQDVVTKPDCNCLYPKAIPSSDPASVSPHQPLAPSMAPVAGLTWEDSEGTEGSSLLPGEQPLHTVDPGSAKQRPPRSTCQSFEPPETPVVKDSTIGGSPQPRPSVGAFNPGMEDILDSAMGTNWVPEEASGEASEIPVPQGTELSPSRPGGGSMQTEPARPSNFLSASSPLPASAKGQQPADVTGTALPRVGPVRPTGQDWNHTPQKTDHPSALLRDPPEPGSPRISSLRPQGLSNPSTLSAQPQLSRSHSSGSVLPLGELEGRRSTRDRRSPAEPEGGPASEGAARPLPRFNSVPLTDTGHERQSEGSFSPQLQESVFHLLVPSVILVLLAVGGLLFYRWRRRSHQEPQRADSPLEQPEGSPLTQDDRQVELPV
# Columns and labels:
# [1] = test system: soluble c-FMS (ectodomain shedding of c-FMS); experiment: Soluble c-FMS in culture media of human CD14+ cells, ELISA; format: cell-based; details: BB94 10 uM for 2 days after 8 hours M-CSF (20 ng/ml)
# Method: FIGS. 8A-8I show c-FMS expression in synovial macrophages. (A) The levels of M-CSF in synovial fluids from patients with rheumatoid arthritis (RA, n=13) and osteoarthritis (OA, n=8) were measured. (B) Mass spectrometry analysis for proteins from ˜50 kDa bands (red box) identified c-FMS as one of top genes. An image of coomassie blue stained genes showing immunoprecipitated cells lysates with either anti-DDK-tag antibodies or IgG control. (C-G) Human CD14+ cells were cultured with M-CSF (20ng/ml). Immunoblot of c-FMS with different antibodies against C-terminal of c-FMS; (C) C-20, (D) D-8, and (E) #3152. Immunoblot of c-FMS with different antibodies against N-terminal of c-FMS; (F) #61701, (G) H-300. (H-I) Human CD14+ cells were cultured with M-CSF (20 ng/ml) for 8 hours to induce early signals, and then BB94 (10 uM) was added for 2 days. […] (I) Soluble c-FMS was detected by ELISA (n=3). […]
# c-FMS and M-CSF in synovial fluids and the supernatants of cell culture was measured using sandwich ELISA kit (R&D Systems; DY329 and DY216) according to manufacturer's instructions. C-telopeptide of type I collagen (CTX-1) and Procollagen 1 N-Terminal Propeptide (P1NP) in Serum from WT and FICDtg^M mice were measured using RatLapstm EIA kit (Immunodiagnostic Systems; AC-06F1) or P1NP-ELISA kit (Cloud-Clone corp; SEA957Mu) according to the manufacturer's instructions.
# [2] = test system: FICDs (c-FMS intracellular fragments); experiment: FICD generation in M-CSF-cultured human CD14+ cells, immunoblot of whole lysates; format: cell-based; details: BB94 10 uM for 2 days after 8 hours M-CSF (20 ng/ml)
# Method: FIGS. 8A-8I show c-FMS expression in synovial macrophages. (A) The levels of M-CSF in synovial fluids from patients with rheumatoid arthritis (RA, n=13) and osteoarthritis (OA, n=8) were measured. (B) Mass spectrometry analysis for proteins from ˜50 kDa bands (red box) identified c-FMS as one of top genes. An image of coomassie blue stained genes showing immunoprecipitated cells lysates with either anti-DDK-tag antibodies or IgG control. (C-G) Human CD14+ cells were cultured with M-CSF (20ng/ml). Immunoblot of c-FMS with different antibodies against C-terminal of c-FMS; (C) C-20, (D) D-8, and (E) #3152. Immunoblot of c-FMS with different antibodies against N-terminal of c-FMS; (F) #61701, (G) H-300. (H-I) Human CD14+ cells were cultured with M-CSF (20 ng/ml) for 8 hours to induce early signals, and then BB94 (10 uM) was added for 2 days. (H) Immunoblot with anti c-FMS and α-tubulin antibodies in whole lysates (n=3). (I) Soluble c-FMS was detected by ELISA (n=3). […] All data are shown as mean±SEM. *; p<0.05 significant by two-tailed, paired t-test (A and I). M: mature form, I: immature form, H: hgh mass, L: low mass.
# FIGS. 10A-10F show calpain regulates FICD generation. (A and B) Human CD14+ cells were cultured with M-CSF (20 ng/ml) for 8 hours to induce early signals and then (A) MDL 28170(0, 1, 2, 5 uM) or (B) PD150606 (0, 2, 5 uM) was added for 2 days. […]
# [3] = test system: FICD (mem, H-FICD, L-FICD); experiment: FICD in membrane, cytoplasmic and nuclear fractions of human OCPs, immunoblot; format: cell-based; details: for generation of H-FICD and L-FICD and cellular distribution of FICDs: human CD14+ cells stimulated with ligand (20 ng/ml)
# Method: (a) Human CD14+ cells were cultured with M-CSF (20 ng/ml) for 8 hours to induce early signals and then DAPT (10uM) was added for 2 days. Protein expression of c-FMS, Na+K+ pump, Lamin B1 and α-tubulin, as determined by immunoblot. ME; membrane extracts, CE; cytoplasmic extracts, and NE; nuclear extracts. (b) Immunohistochemistry of DAPI and c-FMS [middle]. […] Scale: 200×. (c) Cells were starved for three hours and then stimulated with M-CSF for the indicated times. (d and e) Cells were treated with Imatinib (0.3 μM, d) or c-FMS blocking antibody (5 μg) prior to the addition of M-CSF. Protein expression of FICD was measured by immunoblot. Lamin B1 and α-tubulin were used as controls for nuclear and cytoplasmic fractions, respectively. (f) Human CD14+ cells were cultured with M-CSF (20 ng/ml) for 8 hours to induce early signals and then MDL 28170(5 uM). Immunoblot with anti c-FMS and Lamin B1 antibodies. (g and h) Calpain 1, 5, and 6 were knocked down with siRNAs. Cells were cultured with M-CSF for 12 hours. (g) Efficiency of knockdown of Calpain 1, 5, and 6. (h) Immunoblot of c-FMS and Lamin B1. All data are shown as mean±SEM. *,p<0.05 by two-tailed, unpaired t-test (g). Representative results from at least three independent experiments.
# (A and B) Human CD14+ cells were cultured with M-CSF (20 ng/ml) for 8 hours to induce early signals and then (A) MDL 28170(0, 1, 2, 5 uM) or (B) PD150606 (0, 2, 5 uM) was added for 2 days. Immunoblot with anti c-FMS and α-tubulin antibodies in whole lysates(n=3). (C) Immunoblot of nuclear lysates with c-FMS and Lamin B1 antibodies. Cells were cultured with M-CSF for 12 hours, and then M-CSF was removed. Cells were subsequently treated with or without CaCl2 (10 mM) for an additional 24 hours. (D) Osteoclastogenesis assay. Human CD14+ cells were cultured with M-CSF, RANKL and MDL28170 for 4 days. […] Black scale bar is 100 μm. […] First two calpain cleavage sites in cytoplasmic domains of c-FMS were used for FICD constructs. (F) A schematic diagram of a FICD construct. Representative results from at least three independent experiments.
# Whole cell extracts were prepared by lysis in buffer containing 1× Lamin sample buffer (Bio-rad) and 2-Mercaptoethanol (Sigma) or RIPA buffer (Sigma). The cell membrane-permeable protease inhibitor, Pefablock (1 mM), was added immediately prior to harvest cells. The membrane proteins were extracted with Mem-PER™ Plus Membrane Protein Extraction Kit (Thermorfisher scientific; 89842) according to manufacturer's instructions. To extracts of nucleus protein, cells were incubated in buffer A (10 mM Hepes, pH 7.9, 1.5 mM MgCl2, 10 mM KCl, 0.1 mM EDTA, 0.1 mM EGTA, proteinase inhibitor cocktail (Complete, Roche) and 1 mM DTT) for 15 min at 4° C. NP-40 was added to a final concentration of 0.5%. Nucleus was collected by centrifugation (5000 rpm, 5 min). The pellets were lysed by Bioruptor-ultrasonicator (UCD400, Diagenode) in buffer B (20 mM Hepes, pH 7.9, 0.4M NaCl, 10 mM KCl, 1 mM EDTA, 1 mM EGTA, 10% Glycerol, proteinase inhibitor cocktail and 1 mM DTT) and collected the supernatant by centrifugation (12,000 rpm, 10 min). The protein concentration of nuclear extracts was quantitated using the Bradford assay (Bio-Rad; 5000001). For immunoblot, proteins were separated on 7.5 or 10% SDS-PAGE gels, transferred to polyvinylidene difluoride membranes (PVDF, Millipore; ISEQ00010), and detected by antibodies as listed in the figure legends.
# L-FICD generation = experiment: Screening of 53 protease inhibitors from a protease library for L-FICD generation; format: cell-based
# Description: To identify the protease(s) responsible for cleavage of H-FICD in an unbiased manner, we performed a screening of 53 protease inhibitors using a protease library. The best hits associated with the inhibition of L-FICD generation were MDL28170 and PD150606—two calpain inhibitors—along with MMP inhibitors and γ-secretase inhibitors. Calpain is the family of calcium-dependent cytosolic cysteine proteases expressed ubiquitously in mammals and many other organisms (Pfaff, M., Du, X. & Ginsberg, M. H. Calpain cleavage of integrin beta cytoplasmic domains. FEBS Lett 460, 17-22 (1999)), and calpain-dependent cleavages contribute to modulating various cellular functions such as apoptosis, proliferation and migration (Deshpande, R. V. et al. Calpain expression in lymphoid cells. Increased mRNA and protein levels after cell activation. J Biol Chem 270, 2497-2505 (1995). Svensson, L. et al. Calpain 2 controls turnover of LFA-1 adhesions on migrating T lymphocytes. PloS one 5, e15090, doi:10.1371/journal.pone.0015090 (2010).). […] Since calpain is activated by calcium, we examined if calcium signaling could compensate for M-CSF signaling to generate FICDs. In the absence of c-FMS signaling, calcium signaling was able to promote the cleavage of […] in the nucleus, and […] reversed the effect of calcium signaling on L-FICD processing (FIG.10C). […]
# arthritic bone erosion = details: rheumatoid arthritis patients; cited from earlier work
# [4] = DAPT 10uM for 2 days after 8 hours M-CSF (20 ng/ml)
molecule,measurement,setting,value
CNC(=O)[C@H](Cc1ccccc1)NC(=O)[C@H](CC(C)C)[C@H](CSc1cccs1)C(=O)NO [BB94],"ectodomain shedding of c-FMS, soluble c-FMS in the media",[1],inhibited the ectodomain shedding of c-FMS; also recorded: inhibited the shedding of c-FMS and diminished soluble c-FMS in the media
same,generation of FICDs,[2],suppressed the generation of FICDs
"C[C@H](NC(=O)Cc1cc(F)cc(F)c1)C(=O)N[C@H](C(=O)OC(C)(C)C)c1ccccc1 [DAPT, N-[N-(3,5-difluorophenacetyl)-L-alanyl]-S-phenylglycine t-butyl ester]",cytosol and nuclear FICDs,[3]; [4],suppressed
same,membrane-bound FICD,[3]; [4],membrane-bound FICD accumulated
O=C(O)/C(S)=C/c1ccc(I)cc1 [PD150606],inhibition of L-FICD generation (hit in screening),L-FICD generation,best hits
denosumab: an anti-RANKL antibody,RA disease activity,arthritic bone erosion,without affecting
same,progression of arthritic bone erosion,arthritic bone erosion,shows efficacy
B1,generation of H-FICD and L-FICD and cellular distribution of FICDs,[3],induced
B2,generation of H-FICD and L-FICD and cellular distribution of FICDs,[3],induced
